# Measurements from PubChem BioAssay (NCI).
#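 Briefly, cells in 96-well plates were exposed to five compound concentrations for 48 h, and endpoints were estimated by linear interpolation. GI50 marks 50% less growth. The concentration for full growth arrest is given as TGI.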
# Key:
# Experiment in all cases: NCI tumour cell line growth inhibition, 48 h
# COLO 205 colon = system: COLO 205 colon
# EKVX NSCLC = system: EKVX NSCLC
# KM12 colon = system: KM12 colon
# MCF7 breast = system: MCF7 breast
# MOLT-4 leukemia = system: MOLT-4 leukemia
# NCI-H522 lung = system: NCI-H522 lung
# OVCAR-5 ovarian = system: OVCAR-5 ovarian
# SK-MEL-28 melanoma = system: SK-MEL-28 melanoma
# SK-MEL-5 melanoma = system: SK-MEL-5 melanoma
# SNB-19 CNS = system: SNB-19 CNS
SMILES,GI50 (COLO 205 colon) [µM],TGI (COLO 205 colon) [µM],GI50 (EKVX NSCLC) [µM],TGI (EKVX NSCLC) [µM],GI50 (KM12 colon) [µM],TGI (KM12 colon) [µM],GI50 (MCF7 breast) [µM],TGI (MCF7 breast) [µM],GI50 (MOLT-4 leukemia) [µM],TGI (MOLT-4 leukemia) [µM],GI50 (NCI-H522 lung) [µM],TGI (NCI-H522 lung) [µM],GI50 (OVCAR-5 ovarian) [µM],TGI (OVCAR-5 ovarian) [µM],GI50 (SK-MEL-28 melanoma) [µM],TGI (SK-MEL-28 melanoma) [µM],GI50 (SK-MEL-5 melanoma) [µM],TGI (SK-MEL-5 melanoma) [µM],GI50 (SNB-19 CNS) [µM],TGI (SNB-19 CNS) [µM]
CCOC(=O)[C@@H]1CSC(CC)=C(C(=O)O)N1,> 100,> 100,> 100,> 100,> 100,> 100,> 100,> 100,> 100,> 100,> 100,> 100,> 100,> 100,> 100,> 100,> 100,> 100,> 100,> 100
COc1ccc(C(O)c2cc3c(N)c(C(=O)Nc4cccc(Br)c4C)sc3nc2C)cc1 (centres undefined),1.04,> 11,0.259,> 33.3,0.152,11.7,0.116,> 33.3,0.177,> 33.3,0.157,,0.666,> 25.6,5.2,> 33.3,0.143,0.922,0.211,> 33.3
CC1(C)C2CCC13C(=O)C1OC3(C2)C2C(=O)c3c(ccc4c3ccc3ccccc34)C(=O)C12 (centres undefined),> 54,> 100,> 66.3,> 100,57.6,> 100,31.6,> 75.9,1.1,10.6,> 62.1,> 100,> 100,> 100,> 84.3,> 100,54.3,> 100,> 43.5,> 100
COc1cc2cc(Oc3cccc(NC(=O)Nc4cc(C(F)(F)F)cc(C(F)(F)F)c4)c3)c(C)nc2cc1OC,1.79,3.58,1,2.98,0.918,2.46,0.544,2.36,1.13,4.04,1.25,2.95,1.93,4.14,1.19,3.09,1.62,3.28,0.654,2.16
COc1cc2c(c(OC)c1OC)C(=O)NCCC2,,> 100,,> 100,,> 100,,> 100,,> 100,,> 100,,> 100,,> 100,,> 100,,> 100
